Series [1] concerns the target T1, GnRH-R expressed on glioblastoma cells (Homo sapiens, UniProt P30968).
T1 construct: GnRH peptides to the GnRH-R expressed on glioblastoma cells; endogenous in cells; host or cells: U-87 MG, UP-007, UP-029, SEBTA-023 glioblastoma cells (living)
T1 sequence (P30968 1-328): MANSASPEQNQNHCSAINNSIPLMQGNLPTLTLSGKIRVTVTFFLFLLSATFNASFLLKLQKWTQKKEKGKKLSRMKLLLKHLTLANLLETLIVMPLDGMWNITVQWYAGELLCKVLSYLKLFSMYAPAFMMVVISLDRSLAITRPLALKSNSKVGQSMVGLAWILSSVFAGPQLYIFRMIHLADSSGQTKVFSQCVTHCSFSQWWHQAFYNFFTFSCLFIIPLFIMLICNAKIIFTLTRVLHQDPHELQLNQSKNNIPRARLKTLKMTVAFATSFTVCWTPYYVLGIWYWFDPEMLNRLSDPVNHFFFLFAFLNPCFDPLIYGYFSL
The experiment in a line: Receptor binding by single molecule force spectroscopy. The note with it: for koff: read-out: Dissociation Rate (Koff). How it is done:
The binding of the GnRH analogues to GnRH-R was assessed using single molecule force spectroscopy (SMFS) and Topography and Recognition (TREC) imaging based on AFM. AFM tips were functionalised with Glu-GnRH, goserelin acetate and […] as a monomer and nanofibers using a previously described method ^9, 10. Silicon nitride (6-20 pN/nm spring constant, Bruker, Mass., USA) and magnetically coated […] tips (Keysight, Calif., USA) were used for SMFS and TREC studies, respectively. […] Subsequently, acetal groups were converted into aldehyde groups by immersing the tips in a 1% (w/v) citric acid solution for 10 minutes. […] Following an incubation of 2 hours, the free aldehyde groups were inactivated by ethanolamine for 10 minutes. AFM tips were washed with PBS three times and stored at 4° C. […] Loading rates were calculated by multiplying the pulling velocity (v) with the effective spring constant (keff). Spring constants were determined by the thermal-noise method. The force-distance curves were acquired using PicoView 1.12 (Agilent Technologies, Inc., California, USA) and analysed in Matlab 8.1 software (MathWorks, Massachusetts, USA). […] Amplitude-distance curves were collected on a glass coverslip to adjust the free oscillation amplitude, and to determine the optimal amplitude reduction value for driving the feedback loop during the imaging. Free amplitude of cantilever oscillation was 30 nm and the excitation frequency was set to 9 kHz.

A further series concerns the target T2, GnRH-R on U-87 MG cells (Homo sapiens, UniProt P30968).
T2 construct: endogenous in cells; host or cells: U-87 MG
T2 sequence (P30968 1-328): T1 sequence (P30968 1-328)
The experiment in a line: SMFS blocking experiments with free GnRH-R ligands. Format: binding. As to the method:
Blocking experiments were performed with different GnRH-R ligands (anti-GnRH-R antibody, Glu-GnRH, goserelin acetate, and TPGnRH). U-87 MG cells were analysed with tips functionalised with TPGnRH nanofibers and then the free ligands were added at a final concentration of 1 μg mL^−1 (anti-GnRH-R antibody) or 50 μg mL^−1 (Glu-GnRH, goserelin acetate and TPGnRH). U-87 MG cells treated with ligands were incubated for, at least, one hour at room temperature, and then the same cells were analysed with the same TPGnRH-functionalised tip at the same location in the cell.

Series [2] in a line: Enzymatic stability in rat plasma. The note with it: 50% (v/v) rat plasma.
Protocol: (§1) Fresh blood, obtained from adult male Wistar rats, was collected in sterile the 170 I.U. lithium heparin-coated tubes (Vacutainer, BD Bioscience, UK). Blood was centrifuged immediately at 2,000 g for 15 minutes (4° C.) and supernatant was collected and diluted to 50% (v/v) with PBS. Livers and brains were obtained from adult male Wistar rats, and the tissues were blotted to dryness, weighed, sliced into pieces, and homogenised with ice-cold PBS (in 2 mL of buffer g^−1 of tissue) using the glass homogeniser. Then, tissue homogenates were centrifuged at 4,300 g for 1 hour (4° C.) and the supernatants collected. Glioblastoma cell homogenates were prepared using U-87 MG cells. Cells were cultured in Eagle's Minimum Essential Medium (EMEM) supplemented with 10% (v/v) heat-inactivated fetal bovine serum (FBS), 1% (v/v) of non-essential amino acids (NEAA) and 1 mM of sodium pyruvate in T75 flasks with a surface area of 75 cm^2 and maintained in a humidified atmosphere of 5% CO2 at 37° C. Breast cancer cell homogenates were prepared using MDA-MB-231 cells. Cells were cultured in Dulbecco's Modified Eagle Medium (DMEM) supplemented with high levels of glucose (4.5 g/L), 10% (v/v) heat-inactivated fetal bovine serum (FBS), 1% (v/v) of non-essential amino acids (NEAA) and penicillin and streptomycin (500 units/mL) in T75 flasks with a surface area of 75 cm^2 and maintained in a humidified atmosphere of 5% CO2 at 37° C. Media was changed for both cell lines every 3 to 4 days. After reaching confluence, cells were washed twice with Hank's Balanced Salt Solution (HBSS) and incubated with ˜2 mL of TrypLE Enzyme at 37° C. for ˜3 minutes. Then, complete media were added, and cells were centrifuged at 1,000 rpm for 5 minutes in C-28A centrifuge (Boeco, Germany). U-87 MG or MDA-MB-231 cells (˜10×10^6 cells mL^−1) were re-suspended in ice-cold PBS, and homogenised with a 2×5 second pulses with the probe sonicator (UP200S Ultrasonic processor, SciMed, 200 watts, amplitude of 60%). Cell debris were removed by centrifugation at 2,000 rpm for 5 minutes (Jouan B4i, Thermo Scientific, Paisley, UK). Supernatant was collected and stored at −80° C. Total protein concentration in the homogenates was determined using the Bradford assay with bovine serum albumin as a standard. Diluted plasma, tissue or cell homogenates were pre-warmed during ˜30 minutes at 37° C. Peptide stock solutions (Glu-GnRH, goserelin acetate and TPGnRH, 5 mM in PBS, 500 μL) were prepared and added to the homogenate solutions (120 μL). […] Samples were vortexed for 15 minutes, centrifuged for 15 minutes at 12,000 rpm, and the supernatants were collected and analysed by RP-HPLC.
Series [3] can be described thus: Enzymatic stability in rat brain homogenates. The note with it: 50% (v/v) rat brain homogenates.
Protocol: as §1
Series [4] in a line: Enzymatic stability in rat liver homogenates. Particulars: 50% (v/v) rat liver homogenates; analyte in brackets of label.
Protocol: (§2) Fresh blood, obtained from adult male Wistar rats, was collected in sterile the 170 I.U. lithium heparin-coated tubes (Vacutainer, BD Bioscience, UK). Blood was centrifuged immediately at 2,000 g for 15 minutes (4° C.) and supernatant was collected and diluted to 50% (v/v) with PBS. Livers and brains were obtained from adult male Wistar rats, and the tissues were blotted to dryness, weighed, sliced into pieces, and homogenised with ice-cold PBS (in 2 mL of buffer g^−1 of tissue) using the glass homogeniser. Then, tissue homogenates were centrifuged at 4,300 g for 1 hour (4° C.) and the supernatants collected. Glioblastoma cell homogenates were prepared using U-87 MG cells. Cells were cultured in Eagle's Minimum Essential Medium (EMEM) supplemented with 10% (v/v) heat-inactivated fetal bovine serum (FBS), 1% (v/v) of non-essential amino acids (NEAA) and 1 mM of sodium pyruvate in T75 flasks with a surface area of 75 cm^2 and maintained in a humidified atmosphere of 5% CO2 at 37° C. Breast cancer cell homogenates were prepared using MDA-MB-231 cells. Cells were cultured in Dulbecco's Modified Eagle Medium (DMEM) supplemented with high levels of glucose (4.5 g/L), 10% (v/v) heat-inactivated fetal bovine serum (FBS), 1% (v/v) of non-essential amino acids (NEAA) and penicillin and streptomycin (500 units/mL) in T75 flasks with a surface area of 75 cm^2 and maintained in a humidified atmosphere of 5% CO2 at 37° C. Media was changed for both cell lines every 3 to 4 days. After reaching confluence, cells were washed twice with Hank's Balanced Salt Solution (HBSS) and incubated with ˜2 mL of TrypLE Enzyme at 37° C. for ˜3 minutes. Then, complete media were added, and cells were centrifuged at 1,000 rpm for 5 minutes in C-28A centrifuge (Boeco, Germany). U-87 MG or MDA-MB-231 cells (˜10×10^6 cells mL^−1) were re-suspended in ice-cold PBS, and homogenised with a 2×5 second pulses with the probe sonicator (UP200S Ultrasonic processor, SciMed, 200 watts, amplitude of 60%). Cell debris were removed by centrifugation at 2,000 rpm for 5 minutes (Jouan B4i, Thermo Scientific, Paisley, UK). Supernatant was collected and stored at −80° C. Total protein concentration in the homogenates was determined using the Bradford assay with bovine serum albumin as a standard. Diluted plasma, tissue or cell homogenates were pre-warmed during ˜30 minutes at 37° C. Peptide stock solutions (Glu-GnRH, goserelin acetate and TPGnRH, 5 mM in PBS, 500 μL) were prepared and added to the homogenate solutions (120 μL). PAX-loaded nanofibers prepared at a ratio of 1:7.36 [PAX:TPGnRH consisting of 3 μmol (2.56 mg mL^−1) of PAX, 22.02 μmol (31.46 mg mL^−1) of TPGnRH], as previously described, and further diluted in PBS to achieve a concentration of 5 mM of TPGnRH and 500 nM of PAX (120 μL) were added to the homogenates. At various time intervals, an aliquot was collected (80 μL) and added to ice-cold ACN (80 μL) to quench the enzymatic activity. Samples were stored at −80° C. for at least 3 hours to maximise protein precipitation. Samples were vortexed for 15 minutes, centrifuged for 15 minutes at 12,000 rpm, and the supernatants were collected and analysed by RP-HPLC.
The nature of series [5]: Enzymatic stability in U-87 MG cell homogenates.
Protocol: Fresh blood, obtained from adult male Wistar rats, was collected in sterile the 170 I.U. lithium heparin-coated tubes (Vacutainer, BD Bioscience, UK). Blood was centrifuged immediately at 2,000 g for 15 minutes (4° C.) and supernatant was collected and diluted to 50% (v/v) with PBS. Livers and brains were obtained from adult male Wistar rats, and the tissues were blotted to dryness, weighed, sliced into pieces, and homogenised with ice-cold PBS (in 2 mL of buffer g^−1 of tissue) using the glass homogeniser. Then, tissue homogenates were centrifuged at 4,300 g for 1 hour (4° C.) and the supernatants collected. Glioblastoma cell homogenates were prepared using U-87 MG cells. Cells were cultured in Eagle's Minimum Essential Medium (EMEM) supplemented with 10% (v/v) heat-inactivated fetal bovine serum (FBS), 1% (v/v) of non-essential amino acids (NEAA) and 1 mM of sodium pyruvate in T75 flasks with a surface area of 75 cm^2 and maintained in a humidified atmosphere of 5% CO2 at 37° C. Breast cancer cell homogenates were prepared using MDA-MB-231 cells. Cells were cultured in Dulbecco's Modified Eagle Medium (DMEM) supplemented with high levels of glucose (4.5 g/L), 10% (v/v) heat-inactivated fetal bovine serum (FBS), 1% (v/v) of non-essential amino acids (NEAA) and penicillin and streptomycin (500 units/mL) in T75 flasks with a surface area of 75 cm^2 and maintained in a humidified atmosphere of 5% CO2 at 37° C. Media was changed for both cell lines every 3 to 4 days. After reaching confluence, cells were washed twice with Hank's Balanced Salt Solution (HBSS) and incubated with ˜2 mL of TrypLE Enzyme at 37° C. for ˜3 minutes. Then, complete media were added, and cells were centrifuged at 1,000 rpm for 5 minutes in C-28A centrifuge (Boeco, Germany). […] Total protein concentration in the homogenates was determined using the Bradford assay with bovine serum albumin as a standard. […] Samples were vortexed for 15 minutes, centrifuged for 15 minutes at 12,000 rpm, and the supernatants were collected and analysed by RP-HPLC.
The nature of series [6]: Enzymatic stability in MDA-MB-231 cell homogenates.
Protocol: as §2
[7] abbreviates: after pre-incubation with the free ligand named as label (antibody 1 μg mL^−1, peptides 50 μg mL^−1).
Where [8] appears, read: before addition of the free ligand named as label (no pre-incubation).
[9] abbreviates: human, MDA-MB-231 breast cancer cell homogenate.

Like-named read-outs stand apart in the source and are kept apart here.

Regarding `CC(C)C[C@H](NC(=O)CNC(=O)[C@H](Cc1ccc(O)cc1)NC(=O)[C@H](CO)NC(=O)[C@H](Cc1c[nH]c2ccccc12)NC(=O)[C@H](Cc1cnc[nH]1)NC(=O)[C@@H](N)CCC(=O)O)C(=O)N[C@@H](CCCNC(=N)N)C(=O)N1CCC[C@H]1C(=O)NCC(N)=O` [Glu-GnRH, Glu-His-Trp-Ser^4-Tyr^5-Gly^6-Leu-Arg-Pro-Gly-NH2, reference compound], the “Binding Force” value in series [1] (SEBTA-023) came out at 40.3 ± 11.70 pN; in series [1] (U-87 MG), 25.88 ± 0.94 pN; in series [1] (UP-007), 38.20 ± 9.16 pN; in series [1] (UP-029), 45.6 ± 4.64 pN. Moreover, the “Binding Probability” value in series [1] (SEBTA-023) was determined as 4.93 ± 0.91%; in series [1] (U-87 MG) it was 13.3 ± 1.91%; in series [1] (UP-007), 12.84 ± 4.32%; in series [1] (UP-029), 6.93 ± 2.96%. For the same molecule, the koff (commonly a measure of how fast the partners let go of each other) in series [1] (SEBTA-023) stood at 1.22 ± 0.31 s⁻¹; in series [1] (U-87 MG) it was 1.29 ± 0.34 s⁻¹; in series [1] (UP-007), 1.52 ± 0.2 s⁻¹; in series [1] (UP-029) it was 1.66 ± 0.25 s⁻¹. In addition, the “Binding Probability of TPGnRH nanofiber tip to U-87 MG cells” value (shortened to “Binding Probability … to U-87 MG cells”) on GnRH-R on U-87 MG cells (setting [7]) was found to be 3.4%; on GnRH-R on U-87 MG cells (setting [8]), 12.6%. Besides, the Plateau in series [2] came out at 3.952 µg/mL; in series [3] it was 3.952 µg/mL; in series [4] it was 16.58 µg/mL; in series [5], 3.952 µg/mL; in series [6] (MDA-MB-231 cell homogenates), 552.9 µg/mL. In addition, the k was determined as 0.04021 min⁻¹ in series [2] (analyte in brackets of label), 0.1928 min⁻¹ in series [3] (analyte in brackets of label), 0.1928 min⁻¹ in series [5] (analyte in brackets of label) and 0.1551 min⁻¹ in series [6] (MDA-MB-231 cell homogenates). The same molecule had a T1/2α in series [4] of 0.67 ± 0.03 min. The molecule further yielded a kα in series [4] of 1.088 min⁻¹. In series [6] (setting [9]), the AUC(0-t) (usually exposure summed from dosing to a finite time, without extrapolation to infinity) at 4.03 mM is 20000 µg·h/mL. The C0 at 4.03 mM in series [6] (setting [9]) is 1420 µg/mL. Further, the half-life – broadly, the time in which the quantity being followed falls by half – at 4.03 mM in series [6] (setting [9]) turned out to be 4.47 ± 1.27 min.
In the case of `CC(C)C[C@H](NC(=O)[C@@H](COC(C)(C)C)NC(=O)[C@H](Cc1ccc(O)cc1)NC(=O)[C@H](CO)NC(=O)[C@H](Cc1c[nH]c2ccccc12)NC(=O)[C@H](Cc1cnc[nH]1)NC(=O)[C@@H]1CCC(=O)N1)C(=O)N[C@@H](CCCNC(=N)N)C(=O)N1CCC[C@H]1C(=O)NNC(N)=O` [Goserelin, goserelin acetate, reference compound], in series [1] (U-87 MG), the “Binding Force” value is recorded as 29.88 ± 2.34 pN, the “Binding Probability” value was 4.4 ± 0.94% and the koff is 0.68 ± 0.08 s⁻¹. In addition, in series [1] (UP-007), the “Binding Force” value is recorded as 34.00 ± 15.5 pN, the “Binding Probability” value is listed as 7.48 ± 0.76% and the koff was 1.54 ± 0.12 s⁻¹. For the same molecule, the “Binding Probability … to U-87 MG cells” value on GnRH-R on U-87 MG cells (setting [7]) is on record as 3.8%. Besides, the “Binding Probability … to U-87 MG cells” value at GnRH-R on U-87 MG cells (setting [8]) is 16.2%.
